Measurements reported in patent US12084420B2, “Indoline compounds for inhibiting KIF18A” (Volastra Therapeutics, Inc., priority 2021, dated 2024).

The molecules below were run against hKIF18A (1-374) (Homo sapiens (Human), UniProt Q8NI77) (assay: Inhibition of KIF18A microtubule-dependent ATPase activity (ADP-Glo)). Settings: KIF18A microtubule-dependent ATPase activity, biochemical assay.
Chain of hKIF18A (1-374) (Q8NI77 whole entry, looked up): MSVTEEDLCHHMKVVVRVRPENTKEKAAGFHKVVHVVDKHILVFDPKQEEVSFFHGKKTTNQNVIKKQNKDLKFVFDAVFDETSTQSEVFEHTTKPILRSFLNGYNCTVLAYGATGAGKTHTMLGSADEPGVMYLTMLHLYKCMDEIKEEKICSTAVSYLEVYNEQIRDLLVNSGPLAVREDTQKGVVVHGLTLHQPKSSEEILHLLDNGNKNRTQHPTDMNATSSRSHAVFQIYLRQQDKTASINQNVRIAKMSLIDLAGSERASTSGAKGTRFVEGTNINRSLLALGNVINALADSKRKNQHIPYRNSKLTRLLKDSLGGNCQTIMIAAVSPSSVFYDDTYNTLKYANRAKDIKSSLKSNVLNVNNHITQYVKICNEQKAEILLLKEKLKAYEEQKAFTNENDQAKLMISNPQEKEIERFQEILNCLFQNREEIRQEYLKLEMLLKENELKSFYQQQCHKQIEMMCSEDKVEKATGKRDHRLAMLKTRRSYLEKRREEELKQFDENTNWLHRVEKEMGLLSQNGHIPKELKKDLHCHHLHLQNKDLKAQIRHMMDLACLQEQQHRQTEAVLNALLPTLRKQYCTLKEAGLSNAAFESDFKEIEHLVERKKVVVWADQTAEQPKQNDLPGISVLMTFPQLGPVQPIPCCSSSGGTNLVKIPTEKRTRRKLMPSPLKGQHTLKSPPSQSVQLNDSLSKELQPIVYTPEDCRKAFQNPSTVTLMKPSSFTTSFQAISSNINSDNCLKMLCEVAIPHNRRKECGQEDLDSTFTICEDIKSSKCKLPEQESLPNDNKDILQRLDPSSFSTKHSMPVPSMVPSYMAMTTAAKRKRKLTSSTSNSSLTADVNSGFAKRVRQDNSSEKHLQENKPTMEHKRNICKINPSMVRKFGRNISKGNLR
Chain of hKIF18A (1-374) (Q2XVP4 whole entry partner, looked up): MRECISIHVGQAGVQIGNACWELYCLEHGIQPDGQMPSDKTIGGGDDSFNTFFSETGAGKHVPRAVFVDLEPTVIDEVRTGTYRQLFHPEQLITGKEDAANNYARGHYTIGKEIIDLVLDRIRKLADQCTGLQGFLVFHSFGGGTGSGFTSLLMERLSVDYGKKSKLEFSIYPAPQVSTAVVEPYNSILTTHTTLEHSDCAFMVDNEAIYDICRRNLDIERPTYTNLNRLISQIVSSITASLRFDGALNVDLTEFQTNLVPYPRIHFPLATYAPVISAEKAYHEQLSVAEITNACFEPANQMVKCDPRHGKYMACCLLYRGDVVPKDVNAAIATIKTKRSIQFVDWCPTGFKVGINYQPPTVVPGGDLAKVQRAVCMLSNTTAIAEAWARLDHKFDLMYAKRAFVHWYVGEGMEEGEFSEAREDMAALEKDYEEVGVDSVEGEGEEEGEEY
Chain of hKIF18A (1-374) (P02554 whole entry partner, looked up): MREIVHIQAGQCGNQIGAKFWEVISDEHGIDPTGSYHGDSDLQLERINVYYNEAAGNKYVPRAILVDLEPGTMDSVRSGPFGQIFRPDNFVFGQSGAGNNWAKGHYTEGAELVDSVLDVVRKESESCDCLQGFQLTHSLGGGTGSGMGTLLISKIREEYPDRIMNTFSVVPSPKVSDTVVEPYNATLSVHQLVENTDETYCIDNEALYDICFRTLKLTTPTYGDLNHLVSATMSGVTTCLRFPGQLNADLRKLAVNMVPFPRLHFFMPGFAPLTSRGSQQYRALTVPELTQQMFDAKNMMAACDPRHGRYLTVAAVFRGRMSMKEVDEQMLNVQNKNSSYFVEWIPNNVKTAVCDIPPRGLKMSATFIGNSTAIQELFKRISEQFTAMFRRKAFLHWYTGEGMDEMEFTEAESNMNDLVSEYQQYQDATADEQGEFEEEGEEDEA

IC50 | Compound
49 nM | CC(C)(C)NS(=O)(=O)c1cccc(C(=O)N2CC3(CCC4(CC4)CC3)c3cc(C(O)C(F)(F)F)ccc32)c1 (centres unmarked) [Compound 338, N-(tert-butyl)-3-(5″-(2,2,2-trifluoro-1-hydroxyethyl)dispiro[cyclopropane-1,1′-cyclohexane-4′,3″-indoline]-1″-carbonyl)benzenesulfonamide]
280 nM | CS(=O)(=O)Nc1ccc2c(c1)C1(CCC3(CC3)CC1)CN2C(=O)c1cccc(NC2CCCC2)c1 [Compound 347, N-(1″-(3-(cyclopentylamino)benzoyl)dispiro [cyclopropane-1,1′-cyclohexane-4′,3″- indolin]-5″-yl)methanesulfonamide]
15 nM | CS(=O)(=O)Nc1ccc2c(c1)C1(CCC3(CC3)CC1)CN2C(=O)c1cccc([C@H](O)C2CCC2)c1 (single isomer, unassigned) [Compound 313b]
140 nM | CC(C)N(C)S(=O)(=O)c1cccc(C(=O)N2CC3(CCCCC3)c3cc(NS(C)(=O)=O)ccc32)c1 [Compound 55, N-isopropyl-N-methyl-3-(5′-(methylsulfonamido)spiro[cyclohexane-1,3′-indoline]-1′-carbonyl)benzenesulfonamide]
1100 nM | CCOC(=O)Nc1ccc2c(c1)C1(CCCCC1)CN2C(=O)c1cccc(S(=O)(=O)N2CCCCC2)c1 [Compound 141, ethyl (1′-(3-(piperidin-1-ylsulfonyl)benzoyl)spiro[cyclohexane-1,3′-indolin]-5′-yl)carbamate]
1100 nM | O=C(c1cccc(S(=O)(=O)N2CCCCC2)c1)N1CC2(CCCCC2)c2cc(O)ccc21 [Compound 166, (5′-hydroxyspiro[cyclohexane-1,3′-indolin]-1′-yl)(3-(piperidin-1-ylsulfonyl)phenyl)methanone]
50 nM | CC(C)S(=O)(=O)c1cccc(C(=O)N2CC3(CCC4(CC4)CC3)c3cc(NS(C)(=O)=O)ccc32)c1 [Compound 326, N-(1″-(3-(isopropylsulfonyl)benzoyl)dispiro [cyclopropane-1,1′-cyclohexane-4′,3″- indolin]-5″-yl)methanesulfonamide]
180 nM | CS(=O)(=O)Nc1ccc2c(c1)C1(CCCCC1)CN2C(=O)c1cccc(S(=O)(=O)N2CCCC2)c1 [Compound 241, N-(1′-(3-(pyrrolidin-1-ylsulfonyl)benzoyl)spiro[cyclohexane-1,3′-indolin]-5′-yl)methanesulfonamide]
41 nM | CC(C)(C)NS(=O)(=O)c1cc(C(=O)N2CC3(CCC(F)(F)CC3)c3cc(NS(C)(=O)=O)ccc32)cs1 [Compound 277, N-(tert-butyl)-4-(4,4-difluoro-5′-(methylsulfonamido)spiro[cyclohexane-1,3′-indoline]-1′-carbonyl)thiophene-2-sulfonamide]
8 nM | CCS(=O)(=O)Nc1ccc2c(c1)C1(CCC3(CC3)CC1)CN2C(=O)c1csc(S(=O)(=O)NC(C)(C)C)c1 [Compound 275, N-(tert-butyl)-4-(5″- (ethylsulfonamido)dispiro[cyclopropane-1,1′-cyclohexane-4′,3″-indoline]-1″- carbonyl)thiophene-2-sulfonamide]
4.8 nM | CCS(=O)(=O)Nc1ccc2c(c1)C1(CCC3(CC3)CC1)CN2C(=O)c1ccc(C(O)C2CCCC2)o1 (single isomer, unassigned) [Compound 367b]
13 nM | CS(=O)(=O)Nc1ccc2c(c1)C1(CCC3(CC3)CC1)CN2C(=O)c1csc(S(=O)(=O)N2CCC(F)(F)CC2)c1 [Compound 281, N-(1″-(5-((4,4-difluoropiperidin-1-yl)sulfonyl)thiophene-3-carbonyl)dispiro[cyclopropane-1,1′-cyclohexane-4′,3″-indolin]-5″- yl)methanesulfonamide]
8.8 nM | CS(=O)(=O)Nc1ccc2c(c1)C1(CCC3(CC3)CC1)CN2C(=O)c1ccc(F)c(S(=O)(=O)NC23CC(C2)C3)c1 [Compound 337, N-(bicyclo[1.1.1]pentan-1-yl)-2-fluoro-5-(5″-(methylsulfonamido)dispiro[cyclopropane-1,1′-cyclohexane-4′,3″-indoline]-1″- carbonyl)benzenesulfonamide]
78 nM | CCN(c1ccc2c(c1)C1(CCC3(CC3)CC1)CN2C(=O)c1cccc(S(=O)(=O)N2CCC(F)(F)CC2)c1)S(C)(=O)=O [Compound 32, N-(1″-(3-((4,4-difluoropiperidin-1-yl)sulfonyl)benzoyl)dispiro[cyclopropane-1,1′-cyclohexane-4′,3″-indolin]-5″- yl)-N-ethylmethanesulfonamide]
27 nM | CC1(NS(=O)(=O)c2cccc(C(=O)N3CC4(CCC5(CC5)CC4)c4cc(NS(C)(=O)=O)ccc43)c2)COC1 [Compound 206, N-(3-methyloxetan-3-yl)-3-(5″- (methylsulfonamido)dispiro[cyclopropane-1,1′-cyclohexane-4′,3″-indoline]-1″-carbonyl)benzenesulfonamide]
1100 nM | Cc1oc(C(=O)N2CC3(CCCCC3)c3cc(NS(C)(=O)=O)ccc32)cc1S(=O)(=O)NC(C)(C)C [Compound 57, N-(tert-butyl)-2-methyl-5-(5′-(methylsulfonamido)spiro[cyclohexane-1,3′-indoline]-1′-carbonyl)furan-3-sulfonamide]

IC50 | Compound
28 nM | CS(=O)(=O)Nc1ccc2c(c1)C1(CCC3(CC3)CC1)CN2C(=O)c1cccc(C(O)CN2CC(F)(F)C2)c1 (centres unmarked) [Compound 314, N-(1″-(3-(2-(3,3-difluoroazetidin-1-yl)-1-hydroxyethyl)benzoyl)dispiro[cyclopropane-1,1′-cyclohexane-4′,3″-indolin]-5″-yl)methanesulfonamide]
77 nM | CC(C)(C)NS(=O)(=O)c1csc(C(=O)N2CC3(CCC4(CC4)CC3)c3cc(NS(C)(=O)=O)ccc32)c1 [Compound 268, N-(tert-butyl)-5-(5″- (methylsulfonamido)dispiro[cyclopropane-1,1′-cyclohexane-4′,3″-indoline]-1″-carbonyl)thiophene-3-sulfonamide]
63 nM | CC1(O)CN(S(=O)(=O)c2cccc(C(=O)N3CC4(CCC5(CC5)CC4)c4cc(NS(C)(=O)=O)ccc43)c2)C1 [Compound 255, N-(1″-(3-((3-hydroxy-3-methylazetidin-1-yl)sulfonyl)benzoyl)dispiro[cyclopropane-1,1′-cyclohexane-4′,3″-indolin]-5″- yl)methanesulfonamide]
14 nM | C=C1CN(S(=O)(=O)c2cccc(C(=O)N3CC4(CCC5(CC5)CC4)c4cc(NS(C)(=O)=O)ccc43)c2)C1 [Compound 258]
17 nM | CC(C)(C)NS(=O)(=O)c1cc(C(=O)N2CC3(CCCCC3)c3cc(NS(=O)(=O)CCO)ccc32)cs1 [Compound 289, N-(tert-butyl)-4-(5′-((2-hydroxyethyl)sulfonamido)spiro [cyclohexane-1,3′-indoline]-1′-carbonyl)thiophene-2-sulfonamide]
1600 nM | O=C(c1cccc(S(=O)(=O)N2CCC(F)(F)CC2)c1)N1CC2(CCCC2)c2ccccc21 [Compound 3, (3-((4,4-difluoropiperidin-1-yl)sulfonyl)phenyl)(spiro[cyclopentane-1,3′-indolin]-1′-yl)methanone]
20 nM | CS(=O)(=O)Nc1ccc2c(c1)C1(CCC3(CC3)CC1)CN2C(=O)c1cccc(CN2CCC(F)(F)CC2)n1 [Compound 342, N-(1″-(6-((4,4-difluoropiperidin-1-yl)methyl)picolinoyl)dispiro[cyclopropane-1,1′-cyclohexane-4′,3″-indolin]-5″- yl)methanesulfonamide]
24 nM | C[C@H](c1cccc(C(=O)N2CC3(CCC4(CC4)CC3)c3cc(NS(C)(=O)=O)ccc32)c1)N1CCC(F)(F)CC1 (single isomer, unassigned) [Compound 341b]
100 nM | CC(C)(C)NS(=O)(=O)c1cc(C(=O)N2CC3(CCCCC3)c3cc(NS(C)(=O)=O)ccc32)ccc1F [Compound 96, N-(tert-butyl)-2-fluoro-5-(5′-(methylsulfonamido)spiro[cyclohexane-1,3′-indoline]-1′-carbonyl)benzenesulfonamide]
72 nM | CC1(F)CCC2(CC1)CN(C(=O)c1cccc(S(=O)(=O)NC(C)(C)C)c1)c1ccc(NS(C)(=O)=O)cc12 (centres unmarked) [Compound 329, N-(tert-butyl)-3-(4-fluoro-4-methyl-5′-(methylsulfonamido)spiro[cyclohexane-1,3′-indoline]-1′-carbonyl)benzenesulfonamide]
3.5 nM | O=C(c1ccc(C(O)C2CCCC2)o1)N1CC2(CCC3(CC3)CC2)c2cc(NS(=O)(=O)CCO)ccc21 (single isomer, unassigned) [Compound 368b]
3 nM | O=C(c1ccc(C(O)C2CCCC2)o1)N1CC2(CCC3(CC3)CC2)c2cc(NS(=O)(=O)CCO)ccc21 (single isomer, unassigned) [Compound 368a]
9.3 nM | CCS(=O)(=O)Nc1ccc2c(c1)C1(CCC3(CC3)CC1)CN2C(=O)c1cccc(S(=O)(=O)NC2CCC2)c1 [Compound 261, N-cyclobutyl-3-(5″- (ethylsulfonamido)dispiro[cyclopropane-1,1′-cyclohexane-4′,3″-indoline]-1″- carbonyl)benzenesulfonamide]
11 nM | CC1CCC(NS(=O)(=O)c2cccc(C(=O)N3CC4(CCC5(CC5)CC4)c4cc(NS(C)(=O)=O)ccc43)c2)C1 (centres unmarked) [Compound 285, N-(3-methylcyclopentyl)-3-(5″- (methylsulfonamido)dispiro[cyclopropane-1,1′-cyclohexane-4′,3″-indoline]-1″-carbonyl)benzenesulfonamide]
6.3 nM | CS(=O)(=O)Nc1ccc2c(c1)C1(CCC3(CC3)CC1)CN2C(=O)c1csc(S(=O)(=O)N2CC3(CCC3)C2)c1 [Compound 279, N-(1″-(5-((2-azaspiro[3.3]heptan-2-yl)sulfonyl)thiophene-3-carbonyl)dispiro[cyclopropane-1,1′-cyclohexane-4′,3″-indolin]-5″- yl)methanesulfonamide]
28 nM | CS(=O)(=O)Nc1ccc2c(c1)C1(CCC3(CC3)CC1)CN2C(=O)c1cccc(CN2C[C@@H]3[C@H](C2)C3(F)F)c1 [Compound 358, N-(1″-(3-((6,6-difluoro-3-azabicyclo[3.1.0]hexan-3-yl)methyl)benzoyl)dispiro[cyclopropane-1,1′-cyclohexane-4′,3″-indolin]-5″- yl)methanesulfonamide]
